Measurements as given in publication PMC2758911 (Clinical cancer research : an official journal of the …, 2009).

What was measured:
[1] = system: relapsed/refractory multiple myeloma patients
QT interval = conditions: cited from earlier work
[2] = Vorinostat serum pharmacokinetics, day 4 of cycle 1; type: in vivo, human; conditions: for Tmax / half-life / AUC(0-inf) / Cmax: human, po
[3] = system: relapsed and refractory myeloma patients; conditions: cited from earlier work
[4] = single patient with grade 3 event, baseline QTc 394 msec
[5] = vorinostat 400 mg daily, ECG 3 hours after vorinostat

## CC(C)C[C@H](NC(=O)[C@H](Cc1ccccc1)NC(=O)c1cnccn1)B(O)O [bortezomib]
[1]; days 1, 4, 8, 11 of 21-day cycle, with vorinostat 400 mg daily for 8 days
  Bortezomib dose at the MTD of the combination: 1.3 mg/m2
[1]; human, in vivo
  Patients in whom bortezomib was decreased from 1.3 mg/m2 to 1 mg/m2: 8 patients

## Cc1[nH]c2ccccc2c1CCNCc1ccc(/C=C/C(=O)NO)cc1 [panobinostat]
QT interval
  QTc prolongation in phase I and/or II studies: have shown evidence of QTc prolongation

## O=C(CCCCCCC(=O)Nc1ccccc1)NO [vorinostat, suberoylanilide hydroxamic acid]
[2]; Student t-test, p=0.35
  Cmax at 400 mg versus 500 mg: not statistically different
[2]; doses 100–500 mg
  Dose proportionality of vorinostat pharmacokinetics (AUC): the increase was greater than proportional
  Serum Cmax versus dose: reached a plateau above 400 mg
[2]; doses 100–500 mg, listed as Vorinostat
  Dose proportionality of vorinostat pharmacokinetics (AUC): non-linear
[2]; serum
  Tmax: 0.5 to 6 h
  half-life: 0.8 to 7.6 h
[2]; serum, 100 mg
  AUC(0-inf): 760 µM·h
  Cmax: 310 µM
  Tmax: 1.3 h
  half-life: 1.3 h
[2]; serum, 200 mg
  AUC(0-inf): 2030 µM·h
  Cmax: 650 µM
  Tmax: 1.3 h
[2]; serum, 400 mg
  AUC(0-inf): 5130 µM·h
  Cmax: 1420 µM
[2]; serum, 500 mg
  AUC(0-inf): 8100 µM·h
  Cmax: 1330 µM
  Tmax: 3.8 h
  half-life: 4.4 h
[2]; linear regression, p=0.001, CL/F decreased with increasing dose
  Slope of Cl/F (L/min) versus dose (mg): −0.014
[2]; vorinostat 200 mg BID oral (n=3), serum, day 4 cycle 1, with bortezomib
  t1/2, mean: 2.4 h
[1]; in vivo
  Patients who required a decrease in vorinostat dose for grade 3 diarrhea: 3 patients
[1]; oral once daily for 8 days (days 4–11) every 21 days, with bortezomib 1.3 mg/m2 days 1, 4, 8, 11
  Maximum tolerated dose (MTD) of vorinostat: 400 mg
[1]; [4]
  cQT after vorinostat: 633 ms
  cQT at 24 hours: 389 ms
[1]; [5]
  Prolongation of QTc grade 1, patients: 7
  Prolongation of QTc grade 2, patients: 2
QT interval
  QTc prolongation in phase I and/or II studies: have shown evidence of QTc prolongation
[3]; heavily pre-treated population
  Tolerability and disease stabilization: favorable tolerability and evidence of disease stabilization
[3]; relapsed and refractory myeloma patients
  Single-agent activity: failed to establish significant single-agent activity
